{"source": "patent US20120269871A1", "about": "“SOLID STATE FORMS OF RASAGILINE SALTS” (ACTAVIS GROUP PTC EHF, priority 2009, published 2012)", "origin": "cited, not measured here", "data": [{"smiles": "C#CCN[C@@H]1CCc2ccccc21.CS(=O)(=O)O", "note": "[Rasagiline mesylate]", "values": [{"measurement": "solubility in ethanol", "setting": "solvent: ethanol", "result": "freely soluble"}, {"measurement": "solubility in isopropanol", "setting": "solvent: isopropanol", "result": "sparingly soluble"}, {"measurement": "solubility in water", "setting": "solvent: water", "result": "freely soluble"}]}]}
